The kinase profiling compilation of Christmann-Franck et al. (2016)

How the values were obtained:
Test in all cases: split-luciferase competition binding
PKN1 (human) = PKN1 (human) (UniProt Q16512); settings: compound 10.0 µM
PRKCH (human) = PRKCH (human) (UniProt P24723); settings: compound 10.0 µM
SGK2 (human) = SGK2 (human) (UniProt Q9HBY8); settings: compound 10.0 µM
PRKCI (human) = PRKCI (human) (UniProt P41743); settings: compound 10.0 µM
PRKCD (human) = PRKCD (human) (UniProt Q05655); settings: compound 10.0 µM
PRKCG (human) = PRKCG (human) (UniProt P05129); settings: compound 10.0 µM
RPS6KA1 KD1 (human) = RPS6KA1 KD1 (human) (UniProt Q15418); settings: compound 10.0 µM
RPS6KA6 KD1 (human) = RPS6KA6 KD1 (human) (UniProt Q9UK32); settings: compound 10.0 µM
SGK3 (human) = SGK3 (human) (UniProt Q96BR1); settings: compound 10.0 µM
RPS6KA5 KD1 (human) = RPS6KA5 KD1 (human) (UniProt O75582); settings: compound 10.0 µM
DMPK (human) = DMPK (human) (UniProt Q09013); settings: compound 10.0 µM
PRKACA (mouse) = settings: compound 10.0 µM; accession and sequence are those of the human protein
AKT3 (human) = AKT3 (human) (UniProt Q9Y243); settings: compound 10.0 µM
RPS6KA4 KD1 (human) = RPS6KA4 KD1 (human) (UniProt O75676); settings: compound 10.0 µM
PRKACB (human) = PRKACB (human) (UniProt P22694); settings: compound 10.0 µM
AURKA (human) = AURKA (human) (UniProt O14965); settings: compound 10.0 µM
PRKCE (human) = PRKCE (human) (UniProt Q02156); settings: compound 10.0 µM
RPS6KA2 KD1 (human) = RPS6KA2 KD1 (human) (UniProt Q15349); settings: compound 10.0 µM
PRKX (human) = PRKX (human) (UniProt P51817); settings: compound 10.0 µM
AURKC (human) = AURKC (human) (UniProt Q9UQB9); settings: compound 10.0 µM
STK32B (human) = STK32B (human) (UniProt Q9NY57); settings: compound 10.0 µM
RPS6KA3 KD1 (human) = RPS6KA3 KD1 (human) (UniProt P51812); settings: compound 10.0 µM
AKT2 (human) = AKT2 (human) (UniProt P31751); settings: compound 10.0 µM
AKT1 (human) = AKT1 (human) (UniProt P31749); settings: compound 10.0 µM
AURKB (human) = AURKB (human) (UniProt Q96GD4); settings: compound 10.0 µM
PDPK1 (human) = PDPK1 (human) (UniProt O15530); settings: compound 10.0 µM
PRKCQ (human) = PRKCQ (human) (UniProt Q04759); settings: compound 10.0 µM

PRKCH (human), sequence (P24723 whole entry, looked up): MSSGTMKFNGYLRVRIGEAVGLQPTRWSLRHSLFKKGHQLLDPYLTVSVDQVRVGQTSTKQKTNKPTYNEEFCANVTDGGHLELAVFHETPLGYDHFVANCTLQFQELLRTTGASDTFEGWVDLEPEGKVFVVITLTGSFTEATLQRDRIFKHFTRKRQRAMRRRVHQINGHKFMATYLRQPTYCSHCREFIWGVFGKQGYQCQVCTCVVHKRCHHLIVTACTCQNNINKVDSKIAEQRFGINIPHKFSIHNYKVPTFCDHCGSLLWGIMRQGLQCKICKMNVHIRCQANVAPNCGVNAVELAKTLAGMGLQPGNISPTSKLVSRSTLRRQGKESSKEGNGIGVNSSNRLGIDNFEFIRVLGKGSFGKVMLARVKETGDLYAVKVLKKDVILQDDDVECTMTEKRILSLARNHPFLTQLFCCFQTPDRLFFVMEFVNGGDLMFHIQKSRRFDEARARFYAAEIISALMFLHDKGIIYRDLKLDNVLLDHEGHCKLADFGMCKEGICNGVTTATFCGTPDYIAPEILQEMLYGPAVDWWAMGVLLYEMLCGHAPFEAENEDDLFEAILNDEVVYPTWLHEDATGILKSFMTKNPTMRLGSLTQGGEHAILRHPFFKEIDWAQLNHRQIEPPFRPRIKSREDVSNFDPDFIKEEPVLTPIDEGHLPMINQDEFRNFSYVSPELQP
PRKCE (human), sequence (Q02156 whole entry, looked up): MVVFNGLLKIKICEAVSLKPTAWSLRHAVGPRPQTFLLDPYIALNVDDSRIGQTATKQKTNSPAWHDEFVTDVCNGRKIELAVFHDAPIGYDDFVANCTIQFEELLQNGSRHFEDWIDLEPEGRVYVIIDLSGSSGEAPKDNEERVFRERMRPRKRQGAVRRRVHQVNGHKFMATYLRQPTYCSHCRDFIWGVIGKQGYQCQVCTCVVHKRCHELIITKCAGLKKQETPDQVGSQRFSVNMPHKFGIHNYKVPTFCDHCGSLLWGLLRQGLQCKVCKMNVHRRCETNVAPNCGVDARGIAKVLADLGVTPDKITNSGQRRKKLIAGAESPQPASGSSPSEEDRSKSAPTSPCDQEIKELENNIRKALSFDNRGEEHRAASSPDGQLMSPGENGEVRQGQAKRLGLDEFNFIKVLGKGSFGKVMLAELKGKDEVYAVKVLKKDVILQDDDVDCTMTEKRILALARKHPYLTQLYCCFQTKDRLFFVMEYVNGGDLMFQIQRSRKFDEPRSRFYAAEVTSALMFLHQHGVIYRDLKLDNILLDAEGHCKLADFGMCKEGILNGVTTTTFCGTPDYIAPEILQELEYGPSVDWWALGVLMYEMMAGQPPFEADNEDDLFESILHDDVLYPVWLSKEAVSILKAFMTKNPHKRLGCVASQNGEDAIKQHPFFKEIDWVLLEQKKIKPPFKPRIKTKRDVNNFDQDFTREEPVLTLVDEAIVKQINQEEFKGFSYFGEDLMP
AKT1 (human), sequence (P31749 whole entry, looked up): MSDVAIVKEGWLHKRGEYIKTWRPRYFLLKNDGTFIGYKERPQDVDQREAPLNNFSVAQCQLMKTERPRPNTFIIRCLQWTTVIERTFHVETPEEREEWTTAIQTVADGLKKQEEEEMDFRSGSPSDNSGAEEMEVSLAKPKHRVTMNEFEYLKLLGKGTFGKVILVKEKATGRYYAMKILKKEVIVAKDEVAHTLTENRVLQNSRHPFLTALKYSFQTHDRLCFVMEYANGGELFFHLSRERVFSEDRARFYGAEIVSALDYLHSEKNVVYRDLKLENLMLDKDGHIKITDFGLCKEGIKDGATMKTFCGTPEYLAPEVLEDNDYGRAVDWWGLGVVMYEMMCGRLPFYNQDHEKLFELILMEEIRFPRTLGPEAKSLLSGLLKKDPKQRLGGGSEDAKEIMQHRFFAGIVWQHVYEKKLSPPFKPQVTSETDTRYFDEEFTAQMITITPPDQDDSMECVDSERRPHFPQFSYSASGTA
RPS6KA1 KD1 (human), sequence (Q15418 whole entry, looked up): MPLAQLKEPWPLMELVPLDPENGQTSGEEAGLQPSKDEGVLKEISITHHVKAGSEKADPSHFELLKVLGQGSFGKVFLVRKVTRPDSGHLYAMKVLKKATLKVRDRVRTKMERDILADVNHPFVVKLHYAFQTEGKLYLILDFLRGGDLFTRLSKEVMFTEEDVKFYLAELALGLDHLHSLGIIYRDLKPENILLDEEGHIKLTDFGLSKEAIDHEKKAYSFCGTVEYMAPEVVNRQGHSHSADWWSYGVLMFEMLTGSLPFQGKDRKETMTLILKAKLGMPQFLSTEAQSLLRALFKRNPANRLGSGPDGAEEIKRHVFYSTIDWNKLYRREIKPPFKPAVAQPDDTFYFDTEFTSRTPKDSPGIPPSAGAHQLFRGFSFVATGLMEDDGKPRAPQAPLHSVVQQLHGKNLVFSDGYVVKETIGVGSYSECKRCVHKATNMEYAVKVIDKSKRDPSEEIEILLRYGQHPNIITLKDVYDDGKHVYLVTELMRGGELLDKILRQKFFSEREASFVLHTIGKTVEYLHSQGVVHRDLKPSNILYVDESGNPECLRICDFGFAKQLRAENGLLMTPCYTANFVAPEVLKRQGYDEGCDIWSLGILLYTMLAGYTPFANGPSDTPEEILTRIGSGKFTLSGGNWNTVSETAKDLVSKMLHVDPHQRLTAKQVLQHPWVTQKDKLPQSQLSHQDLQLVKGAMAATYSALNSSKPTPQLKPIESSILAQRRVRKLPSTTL
AURKC (human), sequence (Q9UQB9 whole entry, looked up): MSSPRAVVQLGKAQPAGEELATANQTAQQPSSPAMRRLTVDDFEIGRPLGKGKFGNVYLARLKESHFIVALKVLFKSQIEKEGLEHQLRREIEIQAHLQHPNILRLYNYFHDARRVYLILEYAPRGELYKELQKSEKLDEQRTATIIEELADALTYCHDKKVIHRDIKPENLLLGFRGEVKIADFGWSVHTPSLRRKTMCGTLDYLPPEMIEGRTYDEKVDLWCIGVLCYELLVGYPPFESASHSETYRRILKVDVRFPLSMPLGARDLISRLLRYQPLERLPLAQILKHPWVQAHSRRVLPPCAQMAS
PDPK1 (human), sequence (O15530 whole entry, looked up): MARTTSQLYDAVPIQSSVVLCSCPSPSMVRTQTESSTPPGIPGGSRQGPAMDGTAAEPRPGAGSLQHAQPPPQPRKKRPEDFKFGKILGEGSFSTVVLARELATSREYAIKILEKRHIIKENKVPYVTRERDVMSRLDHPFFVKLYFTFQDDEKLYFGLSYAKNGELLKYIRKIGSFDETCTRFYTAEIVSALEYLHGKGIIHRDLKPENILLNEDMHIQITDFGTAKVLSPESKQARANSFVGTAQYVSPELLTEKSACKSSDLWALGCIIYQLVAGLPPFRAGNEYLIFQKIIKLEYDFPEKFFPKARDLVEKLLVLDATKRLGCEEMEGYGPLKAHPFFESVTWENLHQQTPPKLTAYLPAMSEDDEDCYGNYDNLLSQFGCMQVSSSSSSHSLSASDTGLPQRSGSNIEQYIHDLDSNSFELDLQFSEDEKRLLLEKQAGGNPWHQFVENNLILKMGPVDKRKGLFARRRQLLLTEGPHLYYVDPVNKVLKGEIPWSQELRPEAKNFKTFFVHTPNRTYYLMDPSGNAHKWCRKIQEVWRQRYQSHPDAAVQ
RPS6KA2 KD1 (human), sequence (Q15349 whole entry, looked up): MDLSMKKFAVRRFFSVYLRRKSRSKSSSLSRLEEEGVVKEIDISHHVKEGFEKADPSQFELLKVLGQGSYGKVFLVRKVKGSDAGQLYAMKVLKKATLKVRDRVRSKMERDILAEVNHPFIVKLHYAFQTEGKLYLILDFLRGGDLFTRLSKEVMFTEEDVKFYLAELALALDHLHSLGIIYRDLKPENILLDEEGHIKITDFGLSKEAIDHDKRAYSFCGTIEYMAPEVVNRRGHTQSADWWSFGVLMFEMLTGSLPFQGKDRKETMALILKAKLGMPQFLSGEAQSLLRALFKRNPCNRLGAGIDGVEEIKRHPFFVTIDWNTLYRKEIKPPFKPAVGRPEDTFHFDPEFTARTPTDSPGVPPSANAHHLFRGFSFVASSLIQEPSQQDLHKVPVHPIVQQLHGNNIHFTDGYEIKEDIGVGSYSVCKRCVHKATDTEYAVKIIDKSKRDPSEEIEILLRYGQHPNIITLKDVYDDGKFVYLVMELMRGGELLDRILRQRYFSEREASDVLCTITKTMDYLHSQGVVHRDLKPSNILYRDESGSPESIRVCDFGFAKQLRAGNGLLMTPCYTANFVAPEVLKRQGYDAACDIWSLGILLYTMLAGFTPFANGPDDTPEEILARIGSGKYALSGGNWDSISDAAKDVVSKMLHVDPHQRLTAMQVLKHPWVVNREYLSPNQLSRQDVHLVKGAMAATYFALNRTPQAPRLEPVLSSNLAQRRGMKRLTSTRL
AURKB (human), sequence (Q96GD4 whole entry, looked up): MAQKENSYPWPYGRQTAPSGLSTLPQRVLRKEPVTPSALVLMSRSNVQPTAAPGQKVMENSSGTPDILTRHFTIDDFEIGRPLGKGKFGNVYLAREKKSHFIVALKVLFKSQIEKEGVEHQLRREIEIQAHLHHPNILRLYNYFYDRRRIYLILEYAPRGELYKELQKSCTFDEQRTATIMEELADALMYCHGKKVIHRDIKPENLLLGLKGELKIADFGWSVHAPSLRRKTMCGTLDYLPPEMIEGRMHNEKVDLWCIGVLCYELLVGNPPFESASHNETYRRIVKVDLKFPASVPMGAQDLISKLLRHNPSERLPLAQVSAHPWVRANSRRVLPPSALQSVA
STK32B (human), sequence (Q9NY57 whole entry, looked up): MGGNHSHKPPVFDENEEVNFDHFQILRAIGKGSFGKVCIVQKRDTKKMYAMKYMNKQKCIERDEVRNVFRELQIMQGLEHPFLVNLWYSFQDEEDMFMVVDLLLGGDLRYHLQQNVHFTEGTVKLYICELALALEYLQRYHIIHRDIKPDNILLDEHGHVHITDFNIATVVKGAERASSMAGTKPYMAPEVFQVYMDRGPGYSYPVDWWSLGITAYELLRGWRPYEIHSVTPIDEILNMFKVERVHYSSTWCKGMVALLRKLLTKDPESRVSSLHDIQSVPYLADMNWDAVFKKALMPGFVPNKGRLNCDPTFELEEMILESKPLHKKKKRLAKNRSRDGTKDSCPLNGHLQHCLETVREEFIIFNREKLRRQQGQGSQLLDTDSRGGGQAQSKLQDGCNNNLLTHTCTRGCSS

Compound	inhibition (PKN1 (human))	inhibition (PRKCH (human))	inhibition (SGK2 (human))	inhibition (PRKCI (human))	inhibition (PRKCD (human))	inhibition (PRKCG (human))	inhibition (RPS6KA1 KD1 (human))	inhibition (RPS6KA6 KD1 (human))	inhibition (SGK3 (human))	inhibition (RPS6KA5 KD1 (human))	inhibition (DMPK (human))	inhibition (PRKACA (mouse))	inhibition (AKT3 (human))	inhibition (RPS6KA4 KD1 (human))	inhibition (PRKACB (human))	inhibition (AURKA (human))	inhibition (PRKCE (human))	inhibition (RPS6KA2 KD1 (human))	inhibition (PRKX (human))	inhibition (AURKC (human))	also measured
O=S(=O)(c1cccc2c(Cl)cccc12)N1CCCNCC1	1%	0%	0%	1%	0%	0%	0%	0%	0%	0%	0%	3%	0%	0%	0%	0%	0%	1%	25%	0%	inhibition (STK32B (human)): 0%; inhibition (RPS6KA3 KD1 (human)): 0%; inhibition (AKT2 (human)): 0%; inhibition (AKT1 (human)): 2%; inhibition (AURKB (human)): 13%; inhibition (PDPK1 (human)): 0%; inhibition (PRKCQ (human)): 0%
CC(C)(C)n1nc(-c2ccc(Cl)cc2)c2c(N)ncnc21	0%	4%	0%	0%	0%	0%	7%	7%	0%	1%	26%	30%	0%	0%	8%	0%	0%	4%	0%	6%	inhibition (STK32B (human)): 43%; inhibition (RPS6KA3 KD1 (human)): 6%; inhibition (AKT2 (human)): 0%; inhibition (AKT1 (human)): 0%; inhibition (AURKB (human)): 0%; inhibition (PDPK1 (human)): 0%; inhibition (PRKCQ (human)): 0%
CN(C)CCCn1cc(C2=C(c3c[nH]c4ccccc34)C(=O)NC2=O)c2ccccc21	5%	77%	0%	35%	52%	11%	40%	32%	2%	39%	34%	26%	37%	30%	34%	2%	37%	59%	10%	0%	inhibition (STK32B (human)): 29%; inhibition (RPS6KA3 KD1 (human)): 33%; inhibition (AKT2 (human)): 0%; inhibition (AKT1 (human)): 5%; inhibition (AURKB (human)): 0%; inhibition (PDPK1 (human)): 0%; inhibition (PRKCQ (human)): 69%
O=c1cc(N2CCOCC2)oc2c(-c3ccccc3)cccc12	0%	0%	0%	0%	0%	0%	16%	0%	0%	4%	0%	0%	0%	0%	0%	0%	0%	0%	0%	0%	inhibition (STK32B (human)): 0%; inhibition (RPS6KA3 KD1 (human)): 0%; inhibition (AKT2 (human)): 0%; inhibition (AKT1 (human)): 0%; inhibition (AURKB (human)): 0%; inhibition (PDPK1 (human)): 0%; inhibition (PRKCQ (human)): 0%
O=S(=O)(c1cccc2c(O)nccc12)N1CCCNCC1	6%	0%	0%	37%	0%	0%	0%	0%	0%	0%	0%	19%	0%	0%	0%	0%	0%	0%	53%	5%	inhibition (STK32B (human)): 0%; inhibition (RPS6KA3 KD1 (human)): 0%; inhibition (AKT2 (human)): 0%; inhibition (AKT1 (human)): 0%; inhibition (AURKB (human)): 14%; inhibition (PDPK1 (human)): 0%; inhibition (PRKCQ (human)): 15%
Cc1ccc(NC(=O)c2cccc(N(C)C)c2)cc1NC(=O)c1ccc(O)cc1	0%	0%	0%	0%	1%	0%	0%	0%	0%	0%	0%	7%	0%	0%	0%	3%	0%	0%	0%	8%	inhibition (STK32B (human)): 0%; inhibition (RPS6KA3 KD1 (human)): 0%; inhibition (AKT2 (human)): 0%; inhibition (AKT1 (human)): 0%; inhibition (AURKB (human)): 0%; inhibition (PDPK1 (human)): 0%; inhibition (PRKCQ (human)): 0%
